The text below walks through data of US20050148991A1, “Device for using patient blood as diluent in administering pharmaceuticals” (priority 2002, published 2005).

Each structure is given as a SMILES string.

This data set can be described thus: early study in humans receiving RSR13 via injection in a peripheral vein. In kind it is in vivo. An excerpt:
Therefore, the use of RSR13 and its physiologically acceptable salts in the present methods is contemplated. The preparation and uses for 2-[4-[2-[(3,5-dimethylphenyl)amino]-2-oxoethyl]phenoxy]-2-methyl-propionic acid and its physiologically acceptable salts has been described previously in U.S. Pat. Nos. 5,049,695; 5,122,539; 5,290,803; 5,432,191; 5,525,630; 5,648,375; 5,661,182; 5,677,330; 5,705,521; 5,872,888; and 5,927,283, and pending U.S. patent application Ser. No. 10/082,130, filed Feb. 25, 2002.

On to `Cc1cc(C)cc(NC(=O)Cc2ccc(OC(C)(C)C(=O)O)cc2)c1` [RSR13, 2-[4-[2-[(3,5-dimethylphenyl)amino]-2-oxoethyl]phenoxy]-2-methyl-propionic acid], for which the pain on injection result was “some recipients complained of pain near the site of injection and downstream”.
